{"source": "patent US11932636B2", "about": "“RAD51 inhibitors” (Cyteir Therapeutics, Inc., priority 2019, dated 2024)", "data": [{"tested_on": "Daudi cells (AID positive)", "test": "Compound primary screening: cell death in AID positive Daudi cells (Cell-Titer Glo, Day 7)", "type": "cell-based", "conditions": "Homo sapiens, 168 h; Daudi cells, AID positive; cell death on Day 7, Cell-Titer Glo; read-out: Cellular activity in AID + (Daudi)", "outline": "(§1)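 AID-positive Daudi cells were seeded at 1250 cells per well and treated with serially diluted compound delivered from a DMSO/media master plate. Cultures were incubated at 37 °C, and cell death was measured on Day 7 with Cell-Titer Glo luminescence.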", "units": {"EC50": "nM"}, "values": [{"compound": "CCNS(=O)(=O)c1cc(Nc2nccn2C)ccc1-c1cnc([C@H]2CC[C@H](NC(=O)OC(C)C)CC2)s1", "note": "[Compound 105, isopropyl trans-N-[4-[5-[2-(ethylsulfamoyl)-4-[(1-methylimidazol-2-yl)amino]phenyl]thiazol-2-yl]cyclohexyl]carbamate]", "EC50": "< 100"}, {"compound": "CCNS(=O)(=O)c1cc(Nc2nccn2C)ccc1-c1cnc([C@H]2CC[C@@H](NC(=O)OC(C)C)CC2)s1", "note": "[Compound 106, isopropyl cis-N-[4-[5-[2-(ethylsulfamoyl)-4-[(1-methylimidazol-2-yl)amino]phenyl]thiazol-2-yl]cyclohexyl]carbamate]", "EC50": "< 100"}, {"compound": "CCNS(=O)(=O)c1cc(Nc2nccn2CC(C)C)ccc1-c1cnc([C@H]2CC[C@H](NC(=O)OC(C)C)CC2)s1", "note": "[Compound 107, isopropyl trans-N-[4-[5-[2-(ethylsulfamoyl)-4-[(1-isobutylimidazol-2-yl)amino]phenyl]thiazol-2-yl]cyclohexyl]carbamate]", "EC50": "< 100"}, {"compound": "CCNS(=O)(=O)c1cc(N)ccc1-c1cnc([C@H]2CC[C@H](NC(=O)OC3CC3)CC2)s1", "note": "[Compound 108, cyclopropyl trans-N-[4-[5-[4-amino-2-(ethylsulfamoyl)phenyl]thiazol-2-yl]cyclohexyl]carbamate]", "EC50": "< 100"}, {"compound": "CC(C)OC(=O)N[C@H]1CC[C@@H](c2ncc(-c3ccc(Nc4ncc[nH]4)cc3S(=O)(=O)NC(C)(C)C)s2)CC1", "note": "[Compound 110, isopropyl cis-N-[4-[5-[2-(tert-butylsulfamoyl)-4-(1H-imidazol-2-ylamino)phenyl]thiazol-2-yl]cyclohexyl]carbamate]", "EC50": "100 to 1000"}, {"compound": "CCNS(=O)(=O)c1cc(Nc2cc(C(C)C)ccn2)ccc1-c1cnc([C@H]2CC[C@H](NC(=O)OC(C)C)CC2)s1", "note": "[Compound 111, isopropyl trans-N-[4-[5-[2-(ethylsulfamoyl)-4-[(4-isopropyl-2-pyridyl)amino]phenyl]thiazol-2-yl]cyclohexyl]carbamate]", "EC50": "100 to 1000"}, {"compound": "CCNS(=O)(=O)c1cc(Nc2cccc(C(C)C)n2)ccc1-c1cnc([C@H]2CC[C@H](NC(=O)OC(C)C)CC2)s1", "note": "[Compound 112, isopropyl trans-N-[4-[5-[2-(ethylsulfamoyl)-4-[(6-isopropyl-2-pyridyl)amino]phenyl]thiazol-2-yl]cyclohexyl]carbamate]", "EC50": "< 100"}, {"compound": "CCNS(=O)(=O)c1cc(Nc2ccc(C(C)C)cn2)ccc1-c1cnc([C@H]2CC[C@H](NC(=O)OC(C)C)CC2)s1", "note": "[Compound 113, isopropyl trans-N-[4-[5-[2-(ethylsulfamoyl)-4-[(5-isopropyl-2-pyridyl)amino]phenyl]thiazol-2-yl]cyclohexyl]carbamate]", "EC50": "< 100"}, {"compound": "CCNS(=O)(=O)c1cc(N2CC(OC(C)C)C2)ccc1-c1cnc([C@H]2CC[C@H](NC(=O)OC(C)C)CC2)s1", "note": "[Compound 114, isopropyl trans-N-[4-[5-[2-(ethylsulfamoyl)-4-[3-isopropoxyazetidin-1-yl]phenyl]thiazol-2-yl]cyclohexyl]carbamate]", "EC50": "100 to 1000"}, {"compound": "CCNS(=O)(=O)c1cc(Nc2nnc(C(C)C)s2)ccc1-c1cnc(C2CCC(NC(=O)OC(C)C)CC2)s1", "note": "(stereo not drawn) [Compound 115, isopropyl trans-N-[4-[5-[2-(ethylsulfamoyl)-4-[(5-isopropyl-1,3,4-thiadiazol-2-y)amino]phenyl]thiazol-2-yl]cyclohexyl]carbamate]", "EC50": "< 100"}, {"compound": "CCNS(=O)(=O)c1cc(NC2(C)COC2)ccc1-c1cnc([C@H]2CC[C@H](NC(=O)OC(C)C)CC2)s1", "note": "[Compound 116, isopropyl trans-N-[4-[5-[2-(ethylsulfamoyl)-4-[(3-methyloxetan-3-yl)amino]phenyl]thiazol-2-yl]cyclohexyl]carbamate]", "EC50": "< 100"}, {"compound": "CCNS(=O)(=O)c1cc(N(C)c2nccn2C)ccc1-c1cnc([C@H]2CC[C@H](NC(=O)OC(C)C)CC2)s1", "note": "[Compound 117, isopropyl trans-N-[4-[5-[2-(ethylsulfamoyl)-4-[methyl(1-methyl-1H-imidazol-2-yl)amino]phenyl]thiazol-2-yl]cyclohexyl]carbamate]", "EC50": "100 to 1000"}, {"compound": "CCNS(=O)(=O)c1cc(Nc2nnco2)ccc1-c1cnc([C@H]2CC[C@H](NC(=O)OC(C)C)CC2)s1", "note": "[Compound 118, isopropyl trans-N-[4-[5-[2-(ethylsulfamoyl)-4-[(1,3,4-oxadiazol-2-yl)amino]phenyl]thiazol-2-yl]cyclohexyl]carbamate]", "EC50": "100 to 1000"}, {"compound": "CCNS(=O)(=O)c1cc(Nc2nncs2)ccc1-c1cnc([C@H]2CC[C@H](NC(=O)OC(C)C)CC2)s1", "note": "[Compound 119, isopropyl trans-N-[4-[5-[2-(ethylsulfamoyl)-4-[(1,3,4-thiadiazol-2-yl)amino]phenyl]thiazol-2-yl]cyclohexyl]carbamate]", "EC50": "< 100"}, {"compound": "CCNS(=O)(=O)c1cc(Nc2cn[nH]c2)ccc1-c1cnc([C@H]2CC[C@H](NC(=O)OC(C)C)CC2)s1", "note": "[Compound 120, isopropyl trans-N-[4-[5-[2-(ethylsulfamoyl)-4-[(1H-pyrazol-4-yl)amino]phenyl]thiazol-2-yl]cyclohexyl]carbamate]", "EC50": "< 100"}, {"compound": "CCNS(=O)(=O)c1cc(Nc2ccn[nH]2)ccc1-c1cnc([C@H]2CC[C@H](NC(=O)OC(C)C)CC2)s1", "note": "[Compound 121, isopropyl trans-N-[4-[5-[2-(ethylsulfamoyl)-4-[(1H-pyrazol-5-yl)amino]phenyl]thiazol-2-yl]cyclohexyl]carbamate]", "EC50": "< 100"}, {"compound": "CCNS(=O)(=O)c1cc(Nc2cnccn2)ccc1-c1cnc([C@H]2CC[C@H](NC(=O)OC(C)C)CC2)s1", "note": "[Compound 122, isopropyl trans-N-[4-[5-[2-(ethylsulfamoyl)-4-[(pyrazin-2-yl)amino]phenyl]thiazol-2-yl]cyclohexyl]carbamate]", "EC50": "< 100"}, {"compound": "CCNS(=O)(=O)c1cc(Nc2cccnn2)ccc1-c1cnc([C@H]2CC[C@H](NC(=O)OC(C)C)CC2)s1", "note": "[Compound 123, isopropyl trans-N-[4-[5-[2-(ethylsulfamoyl)-4-[(pyridazin-3-yl)amino]phenyl]thiazol-2-yl]cyclohexyl]carbamate]", "EC50": "< 100"}, {"compound": "CCNS(=O)(=O)c1cc(Nc2ccncn2)ccc1-c1cnc([C@H]2CC[C@H](NC(=O)OC(C)C)CC2)s1", "note": "[Compound 124, isopropyl trans-N-[4-[5-[2-(ethylsulfamoyl)-4-[(pyrimidin-4-yl)amino]phenyl]thiazol-2-yl]cyclohexyl]carbamate]", "EC50": "< 100"}]}, {"tested_on": "Daudi cells (AID positive)", "test": "Compound primary screening: cell death in AID positive Daudi cells (Cell-Titer Glo, Day 7)", "type": "cell-based", "conditions": "Homo sapiens, Daudi, 168 h, read-out: Cellular activity in AID + (Daudi)", "outline": "as §1", "units": {"EC50": "nM"}, "values": [{"compound": "CCNS(=O)(=O)c1cc(Cc2ncco2)ccc1-c1cnc([C@H]2CC[C@H](NC(=O)OC(C)C)CC2)s1", "note": "[Compound 103, isopropyl trans-N-[4-[5-[2-(ethylsulfamoyl)-4-(oxazol-2-ylmethyl)phenyl]thiazol-2-yl]cyclohexyl]carbamate]", "EC50": "100 to 1000"}, {"compound": "CCNS(=O)(=O)c1cc(-c2ncco2)ccc1-c1cnc([C@H]2CC[C@H](NC(=O)OC(C)C)CC2)s1", "note": "[Compound 104, isopropyl trans-N-[4-[5-[2-(ethylsulfamoyl)-4-oxazol-2-yl-phenyl]thiazol-2-yl]cyclohexyl]carbamate]", "EC50": "100 to 1000"}, {"compound": "CCNS(=O)(=O)c1cc(Nc2ncc[nH]2)ccc1-c1cnc([C@H]2CC[C@H](NC(=O)OC3CC3)CC2)s1", "note": "[Compound 109, cyclopropyl trans-N-[4-[5-[2-(ethylsulfamoyl)-4-(1H-imidazol-2-ylamino)phenyl]thiazol-2-yl]cyclohexyl]carbamate]", "EC50": "100 to 1000"}]}]}
